Measurements as given in patent US9546159B2, “N-substituted 3,4-bis (catechol) pyrrole compounds, and the preparation and use thereof in the treatment of cancer” (Centre National De La Recherche Scientifique (CNRS), priority 2012, dated 2017).
pIC50: −log10 of the molar value.

Key:
Assay type in all cases: cell-based
[1] = system: proteins p21 and p27 in HCT-116 cells; assay: Western Blot of proteins p21 and p27; settings: HCT-116, 24 hours
Description: The gene of the protein p27 is described as being regulated by FOXO3, whereas that of the protein p21 is controlled by the p53 transcription factor, stimulated inter alia by oxidative stress. The HCT-116 cells were treated with compound (1) for 24 hours. The cell extracts were then analysed by Western Blot.

K562 (myeloid leukaemia) = assay: cell growth test (CellTiter-Blue Cell Viability Assay); settings: Homo sapiens; K562, 72 hours of treatment; read-out: IC50 (concentration of compound inducing a 50% reduction of cell growth)
Description: (§1) The biological activity of compound (1) was studied in vitro on 3 different cancer cell lines: • HCT-116 (colorectal carcinoma) • U87 (glioblastoma) • K562 (myeloid leukaemia) and on 3 normal non-cancerous cell types: • HUVEC (human umbilical vascular endothelial cells) • NHDF (human dermal fibroblasts) • HFDPC (human hair follicle dermal papilla cells).
(§2) The cells selected for this study were incubated at 37° in the presence of compound (1) added in the culture medium at different concentrations and at different times.
(§3) The effect of compound (1) on HCT-116, U87 and K562 cell growth was evaluated using a cell growth test (CellTiter-Blue™ m Cell Viability Assay, Promega). The growth curves and the IC50 values (concentration of compound inducing a 50% reduction of cell growth) determined after 72 hours of cell treatment with compound (1) are presented in FIG. 1. They are 30 nm for HCT-116 cells, 45 nM for U87 cells and 70 nM for K562.

U87 cells (glioblastoma) = assay: as above; settings: Homo sapiens, U-87 MG, 72 hours of treatment, read-out: IC50 (concentration of compound inducing a 50% reduction of cell growth)
Description: as §1, §2, §3

[2] = system: HCT-116 cells (colorectal carcinoma); assay: as above; settings: Homo sapiens, 72 hours of treatment, read-out: IC50 (concentration of compound inducing a 50% reduction of cell growth)
Description: as §1, §2, §3

HCT-116 cells [3] = assay: counting live cells after trypan blue staining
Description: The effect of compound (1) on cell growth was described in more detail on the HCT-116 cell line. This study was conducted as a function of the concentration and exposure time of the cells to the molecule under test (24 hrs, 48 hrs and 72 hrs) by counting the number of live cells after excluding dead cells by means of trypan blue staining.
FIG. 2 represents the effect of compound (I) on the number and viability of HCT-116 cells as a function of the concentration thereof and the treatment time.

normal human cells = assay: specificity of action: normal human cells versus cancer cells; settings: in vitro, concentrations encompassing the IC50
Text: (§4) In order to determine the specificity of action of compound (1) on cancer cells, we evaluated the effect thereof with respect to normal human HUVEC, NHDF and HFDPC cells and the HCT-116, U87 and K652 cancer cell annotations.
The IC50 values are thus up to 300 times higher for normal cells compared to those obtained for cancer cells.

HCT-116 cells [4] = assay: mitochondrial transmembrane potential (JC-1 probe, flow cytometry); settings: HCT-116, 24 hours, 25 nM to 100 nM
Description: The study of the mitochondrial transmembrane potential, Δψm, was conducted by flow cytometry, using the JC-1 probe (MitoProbe™ JC-1 assay, Molecular Probes). JC-1 is a lipophilic […] compound which selectively penetrates the mitochondria, the colour whereof changes from green to red when the transmembrane potential increases.

[5] = system: Akt protein serine 473 phosphorylation, FOXO3, peroxiredoxin 1 in HCT-116 cells; assay: survival pathway PI3 kinase-Akt-Foxo Western Blot; settings: HCT-116, 24 hours
Description: In view of the stoppage of the cell cycle in the G0/G1 phase associated with an autophagic response in the absence of apoptosis following treatment with compound (1), we studied the action of this compound on the survival pathway involving PI3 kinase-Akt-Foxo. This signalling pathway is very frequently found to be disrupted (by stimulation) in a large number of cancer cells and contributes to the survival thereof.
Indeed, HCT-116 cells were exposed for 24 hours to the action of compound (1) at concentrations varying from 5 nM to 100 nm.

[6] = system: HFDPC (human hair follicle dermal papilla cells); assay: cell growth, normal cells; settings: 72 hours of treatment
Description: as §1, §2, §3, §4

[7] = system: NHDF cells (human dermal fibroblasts); assay: cell growth, normal cells; settings: 72 hours of treatment
Description: as §1, §2, §3, §4

[8] = system: HUVEC cells (human umbilical vascular endothelial cells); assay: cell growth, normal cells; settings: 72 hours of treatment
Description: as §1, §2, §3, §4

HCT-116 cells [9] = assay: cell cycle flow cytometry analysis; settings: HCT-116, 24 hours, 30 and 50 nM
Description: This effect is significant after 24 hours of exposure of the cells to compound (1) used at the 30 and 50 nM concentrations (FIG. 4).

[10] = system: intracellular H2O2 in HCT-116 cells; assay: intracellular H2O2 concentration (DCF-DA, flow cytometry)
Text: The protein peroxiredoxin is an enzyme having a peroxidase activity, controlling the intracellular hydrogen peroxide (H2O2) concentration. Therefore, we evaluated the effect of compound (1) on the intracellular H2O2 concentration, using DCF-DA (2′,7′-dichlorofluorescein diacetate, Sigma) as a marker of intracellular H2O2. Hydrogen peroxide is an intracellular second messenger. It regulates, according to the concentration thereof, numerous functions such as proliferation or apoptosis. A reduction of the concentration thereof is associated with a decrease in proliferation.

[11] = system: protein LC3-II in HCT-116 cells; assay: autophagy: Western Blot of LC3-II; settings: HCT-116, 24 hours, 5 nM to 100 nm
Description: In the aim of determining whether the stoppage of the cell cycle induced by compound (1) induces an autophagic reaction, the HCT-116 cells were treated with compound (1) at different doses for 24 hours. The cell extracts then underwent Western Blot analysis in order to view the expression of the protein LC3-II. Indeed, the protein LC3 exists in the cell either in cytosolic form (LC3-I) or associated with phagosomes (LC3-II). The latter is the marker of the autophagic reaction.

[12] = system: caspases 3 and 7 in HCT-116 cells; assay: caspases 3 and 7 activity (Apo-ONE test); settings: HCT-116, 24 hours, 5 nM to 75 nM
Description: The activity of caspases 3 and 7, marker enzymes of apoptosis, was measured using the Apo-ONE (Promega) test after treating HCT-116 cells with compound (1) at concentrations varying from 5 nM to 75 nM.

SMILES: O=[N+]([O-])c1cc(-c2cn(CCCN3CCCCCCCCCCCC3)cc2-c2cc(O)c(O)c([N+](=O)[O-])c2)cc(O)c1O [compound (1), 5,5′-(1-(3-(Azacyclotridecan-1-yl)propyl)-1H-pyrrole-3,4-diyl)bis(3-nitrobenzene-1,2-diol)]
- expression of the protein p21 [1]: no significant effect
- expression of protein p27 ([1]; 25 and 50 nM): increase in the expression of protein p27
- pIC50 (K562 (myeloid leukaemia)): 7.15
- pIC50 (U87 cells (glioblastoma)): 7.35
- pIC50 [2]: 7.52
- nature of the action (cytostatic / cytotoxic) (HCT-116 cells [3]; HCT-116): cytostatic and not cytotoxic
- reduction of the number of cells (HCT-116 cells [3]; HCT-116, 25 nM, 24 hours of treatment): 40%
- cell viability (trypan blue) (HCT-116 cells [3]; HCT-116, 24, 48 and 72 hrs): lack of modification of cell viability
- inhibition of the number of cells (HCT-116 cells [3]; HCT-116, from 48 hours, concentrations greater than the IC50): up to 80%
- cytotoxicity with respect to normal human cells (normal human cells): does not exhibit any cytotoxicity
- mitochondrial transmembrane potential Δψm (HCT-116 cells [4]): does not modify Δψm significantly
- expression of the protein FOXO3 ([5]; 5 nM to 100 nm): stimulates the expression of the protein FOXO3
- expression of the protein peroxiredoxin 1 ([5]; 5 nM to 100 nm): stimulates the expression of the protein peroxiredoxin 1
- Akt protein serine 473 phosphorylation ([5]; from the 25 nm concentration): totally suppresses
- pIC50 [6]: 5.00
- pIC50 [7]: 5.30
- pIC50 [8]: 5.70
- effect on the cell cycle (HCT-116 cells [9]): blocks cell division in the G0/G1 phase
- dose dependence of the effect on intracellular H2O2 ([10]; HCT-116): dose dependent
- decrease of the intracellular H2O2 concentration ([10]; HCT-116, 50 nM, 18 hours of treatment): approximately 50%
- expression of LC3-II [11]: increase in the expression of LC3-II
- activity of caspases 3 and 7 [12]: lack of variations in the activity of these enzymes
